These results are taken from paper PMC9456261 (International Journal of Molecular Sciences, 2022).

Like-named read-outs stand apart in the source and are kept apart here.

Holding throughout (assay): microbe, parasite or virus in culture
Holding throughout (type): cell-based

The subject of experiment [1] is SARS-CoV-2 Omicron (B.1.1.529).
Experiment [2] has as its system SARS-CoV-2 Beta (B.1.351).
Experiment [3] relates to SARS-CoV-2 Delta (B.1.617.2).
[4] abbreviates: Severe acute respiratory syndrome coronavirus 2, Vero C1008, 72 h.

As a reminder, the IC50 is the midpoint of a concentration-inhibition curve. A lower IC50 goes with greater potency in that assay. Consider `O=C(O)c1ccc(OCCCCCn2c(=O)ccn(Cc3c4ccccc4cc4ccccc34)c2=O)cc1` [Compound 876], for which the results for the IC50 in experiment [1] (setting [4]), in experiment [2] (setting [4]) and in experiment [3] (setting [4]) were 22.4 µM, 23.8 µM and 29.3 µM, respectively.

With `O=C(O)c1ccc(OCCCCn2c(=O)ccn(Cc3ccc(Br)c4ccccc34)c2=O)cc1` [Compound 1006, 4-[4-[3-(4-Bromonaphthyl-1-methyl)-2,6-dioxo-3,6-dihydropyrimidin-1(2H)-yl]butoxy]benzoic acid], the IC50 was over 50 µM in experiment [1] (setting [4]), over 50 µM in experiment [2] (setting [4]) and 27.4 µM in experiment [3] (setting [4]).

As for `O=C(O)c1ccc(OCCCCn2c(=O)ccn(Cc3cccc4ccccc34)c2=O)cc1` [Compound 601, 4-[4-[2,6-Dioxo-3-(naphthyl-1-methyl)-3,6-dihydropyrimidin-1(^2H)-yl]butoxy]benzoic acid], the results for the IC50 in experiment [1] (setting [4]), in experiment [2] (setting [4]) and in experiment [3] (setting [4]) were 27.1 µM, 32.7 µM and 32.7 µM, respectively.

On to `O=C(O)c1ccc(OCCCCn2c(=O)ccn(CCCOc3ccc(Br)cc3)c2=O)cc1` [Compound 873, 4-[4-[3-[3-(4-Bromophenoxy)propyl]-2,6-dioxo-3,6-dihydropyrimidin-1(^2H)-yl]butoxy]benzoic acid], for which the concentration for half-maximal inhibition (IC50) in experiment [1] (setting [4]) was 28.2 µM; in experiment [2] (setting [4]) it was 50 µM; in experiment [3] (setting [4]) it was over 50 µM.

`Cc1cc(C)cc(OCCCCCn2ccc(=O)n(CCCCCOc3ccc(C(=O)O)cc3)c2=O)c1` [Compound 874, 4-[5-[3-[5-(3,5-Dimethylphenoxy)pentyl]-2,6-dioxo-3,6-dihydropyrimidin-1(^2H)-yl]pentyloxy]benzoic acid]: the IC50 in experiment [1] (setting [4]) is over 50 µM; in experiment [2] (setting [4]), 29.1 µM; in experiment [3] (setting [4]), 30.2 µM.

Take `O=C(O)c1ccc(Cn2c(=O)ccn(CCCCCOc3ccc(Br)cc3)c2=O)cc1` [Compound 875]: the IC50 was 22.6 µM in experiment [1] (setting [4]), 33.1 µM in experiment [2] (setting [4]) and 30.7 µM in experiment [3] (setting [4]).

In the case of `O=C(O)c1ccc(OCCCn2c(=O)ccn(CCCCCCCCCCCCOc3ccc(Br)cc3)c2=O)cc1` [Compound 1007, 4-[3-[3-[12-(4-Bromophenoxy)dodecyl]-2,6-dioxo-3,6-dihydropyrimidin-1(^2H)-yl]propoxy]benzoic acid], the half-maximal inhibitory concentration (IC50) in experiment [1] (setting [4]), in experiment [2] (setting [4]) and in experiment [3] (setting [4]) was over 50 µM in each case.

In the case of `O=c1ccn(Cc2c3ccccc3cc3ccccc23)c(=O)n1CCCCCCOc1ccc(Br)cc1` [Compound 611, 1-(Anthracen-9-ylmethyl)-3-[6-(4-bromophenoxy)hexyl]uracil], the IC50 is over 50 µM in experiment [1] (setting [4]), over 50 µM in experiment [2] (setting [4]) and 13.3 µM in experiment [3] (setting [4]).

Turning to `O=C(O)c1ccc(OCCCCCn2c(=O)ccn(CCCCCOc3ccc(F)cc3)c2=O)cc1` [Compound 870, 4-[5-[3-[5-(4-Fluorophenoxy)pentyl]-2,6-dioxo-3,6-dihydropyrimidin-1(^2H)-yl]pentyloxy]benzoic acid], the values for the IC50 in experiment [1] (setting [4]), in experiment [2] (setting [4]) and in experiment [3] (setting [4]) were 24.4 µM, 34.1 µM and 14.6 µM, respectively.

Take `O=C(O)c1ccc(OCCCCn2c(=O)ccn(Cc3ccc4ccccc4c3)c2=O)cc1` [Compound 1005, 4-[4-[2,6-Dioxo-3-(naphthyl-2-methyl)-3,6-dihydropyrimidin-1(^2H)-yl]butoxy]benzoic acid]: the concentration for half-maximal inhibition (IC50) in experiment [1] (setting [4]) was over 50 µM; in experiment [2] (setting [4]), 15.5 µM; in experiment [3] (setting [4]) it was 27.8 µM.

As for “4-[5-[3-[5-(2-Bromophenoxy)pentyl]-2,6-dioxo-5-methyl-3,6-dihydropyrimidin-1(^2H)-yl]pentyloxy]benzoic acid [Compound 872]”, the values for the IC50 in experiment [1], in experiment [2] and in experiment [3] were 7.92 µM, over 50 µM and over 50 µM, respectively.

`O=C(O)c1ccc(OCCCCCn2c(=O)ccn(CCCCCOc3ccccc3Br)c2=O)cc1` [Compound 871, 4-[5-[3-[5-(2-Bromophenoxy)pentyl]-2,6-dioxo-3,6-dihydropyrimidin-1(^2H)-yl]pentyloxy]benzoic acid]: the results for the IC50 in experiment [1] (setting [4]), in experiment [2] (setting [4]) and in experiment [3] (setting [4]) were over 50 µM, 27.3 µM and 26.6 µM, respectively.
